Measured values as given in ChEMBL document CHEMBL1135472 (J Med Chem, 2002).
Blank lines part the entries; values can stand above or below the molecule they belong to. Activity calls are given as the source filed them. The rule behind the calls is not given here.

Legend:
[1] = molecular target: T1, Polyunsaturated fatty acid lipoxygenase ALOX15 (Homo sapiens) (UniProt P16050); experiment: Inhibitory activity against human reticulocyte 15-lipoxygenase (15-HLO); conditions: concentration not given here
T1 sequence (whole entry): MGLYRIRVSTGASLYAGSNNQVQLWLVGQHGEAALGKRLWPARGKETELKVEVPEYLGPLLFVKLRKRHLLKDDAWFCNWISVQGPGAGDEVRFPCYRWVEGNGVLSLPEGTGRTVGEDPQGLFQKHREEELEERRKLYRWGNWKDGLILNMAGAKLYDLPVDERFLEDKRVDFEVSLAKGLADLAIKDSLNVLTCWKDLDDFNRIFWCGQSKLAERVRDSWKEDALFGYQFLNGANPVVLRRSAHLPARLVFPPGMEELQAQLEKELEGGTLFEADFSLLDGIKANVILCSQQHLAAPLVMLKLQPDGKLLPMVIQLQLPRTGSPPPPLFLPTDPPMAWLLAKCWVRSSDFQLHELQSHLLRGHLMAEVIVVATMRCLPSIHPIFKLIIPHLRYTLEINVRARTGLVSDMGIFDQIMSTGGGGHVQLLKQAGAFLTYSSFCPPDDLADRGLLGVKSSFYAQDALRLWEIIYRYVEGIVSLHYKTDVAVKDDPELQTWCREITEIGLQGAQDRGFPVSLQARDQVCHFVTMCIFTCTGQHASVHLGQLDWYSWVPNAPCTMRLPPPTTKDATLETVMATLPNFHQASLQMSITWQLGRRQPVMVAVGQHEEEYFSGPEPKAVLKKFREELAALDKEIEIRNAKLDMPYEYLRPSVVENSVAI

[2] = molecular target: T2, Polyunsaturated fatty acid lipoxygenase ALOX12 (Homo sapiens) (UniProt P18054); experiment: % inhibition against human platelet 12-lipoxygenase (12-HLO); conditions: concentration not given here
T2 sequence (whole entry): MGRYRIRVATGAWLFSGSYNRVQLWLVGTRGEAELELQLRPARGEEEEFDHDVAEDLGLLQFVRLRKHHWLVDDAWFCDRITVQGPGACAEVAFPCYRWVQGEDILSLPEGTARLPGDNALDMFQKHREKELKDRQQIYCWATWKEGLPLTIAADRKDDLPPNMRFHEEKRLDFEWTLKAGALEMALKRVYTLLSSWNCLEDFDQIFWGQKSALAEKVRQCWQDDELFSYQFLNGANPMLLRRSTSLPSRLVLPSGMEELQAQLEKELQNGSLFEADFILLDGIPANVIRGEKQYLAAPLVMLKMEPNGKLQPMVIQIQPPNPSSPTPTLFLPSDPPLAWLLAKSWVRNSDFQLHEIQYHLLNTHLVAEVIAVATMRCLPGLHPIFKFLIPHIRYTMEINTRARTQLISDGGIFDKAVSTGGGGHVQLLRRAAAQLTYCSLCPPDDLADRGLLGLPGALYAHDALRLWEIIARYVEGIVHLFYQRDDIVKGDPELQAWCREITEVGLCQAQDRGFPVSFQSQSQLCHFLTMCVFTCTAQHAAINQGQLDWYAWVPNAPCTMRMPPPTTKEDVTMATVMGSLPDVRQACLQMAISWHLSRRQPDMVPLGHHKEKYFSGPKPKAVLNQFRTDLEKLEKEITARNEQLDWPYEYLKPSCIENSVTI

[3] = molecular target: T3, Seed linoleate 13S-lipoxygenase-1 (Glycine max) (UniProt P08170); experiment: % inhibition against soybean 1-lipoxygenase (SLO)
T3 sequence (whole entry): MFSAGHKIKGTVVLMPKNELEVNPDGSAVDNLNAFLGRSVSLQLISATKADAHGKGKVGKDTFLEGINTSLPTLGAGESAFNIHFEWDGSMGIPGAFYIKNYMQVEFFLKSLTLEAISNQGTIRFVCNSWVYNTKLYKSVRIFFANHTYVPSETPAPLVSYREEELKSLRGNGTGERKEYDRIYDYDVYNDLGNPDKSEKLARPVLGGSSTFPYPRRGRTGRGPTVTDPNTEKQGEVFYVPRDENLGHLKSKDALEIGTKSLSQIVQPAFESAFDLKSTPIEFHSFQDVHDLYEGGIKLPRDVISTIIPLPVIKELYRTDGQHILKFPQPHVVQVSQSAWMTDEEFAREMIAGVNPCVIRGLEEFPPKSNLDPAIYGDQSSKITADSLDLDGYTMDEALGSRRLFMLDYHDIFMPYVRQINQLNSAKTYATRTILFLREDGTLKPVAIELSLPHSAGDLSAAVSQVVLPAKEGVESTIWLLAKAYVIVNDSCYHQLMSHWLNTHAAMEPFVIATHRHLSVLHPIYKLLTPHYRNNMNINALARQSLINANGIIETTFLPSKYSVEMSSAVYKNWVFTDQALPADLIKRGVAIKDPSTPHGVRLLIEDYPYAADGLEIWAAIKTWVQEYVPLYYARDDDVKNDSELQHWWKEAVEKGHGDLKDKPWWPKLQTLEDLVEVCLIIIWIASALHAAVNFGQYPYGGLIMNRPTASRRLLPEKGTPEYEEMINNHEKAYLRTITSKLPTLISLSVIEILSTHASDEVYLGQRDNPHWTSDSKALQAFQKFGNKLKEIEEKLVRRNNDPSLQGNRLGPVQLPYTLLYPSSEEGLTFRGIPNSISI

[4] = molecular target: T4, Polyunsaturated fatty acid lipoxygenase ALOX12 (Homo sapiens, UniProt P18054); experiment: Inhibitory activity against human platelet 12-lipoxygenase (12-HLO)
T4 sequence (P18054 whole entry): T2 sequence (whole entry)

[5] = molecular target: T5, Seed linoleate 13S-lipoxygenase-1 (Glycine max, UniProt P08170); experiment: Inhibitory activity against soybean 1-lipoxygenase (SLO)
T5 sequence (P08170 whole entry): T3 sequence (whole entry)

[6] = molecular target: T1, Polyunsaturated fatty acid lipoxygenase ALOX15 (Homo sapiens); experiment: Compound was evaluated for the percent increase in activation concentration of human reticulocyte 15-lipoxygenase (15-HLO)
[7] = molecular target: T6, Polyunsaturated fatty acid lipoxygenase ALOX15 (Homo sapiens, UniProt P16050); experiment: Concentration that cause 50% activation of human reticulocyte 15-lipoxygenase (15-HLO)
T6 sequence (P16050 whole entry): T1 sequence (whole entry)

[8] = molecular target: T1, Polyunsaturated fatty acid lipoxygenase ALOX15 (Homo sapiens); experiment: Inhibitory activity against human reticulocyte 15-lipoxygenase (15-HLO); NI is no inhibition
[9] = molecular target: T3, Seed linoleate 13S-lipoxygenase-1 (Glycine max); experiment: percent inhibition against soybean 1-lipoxygenase (SLO);NI is no inhibition
[10] = molecular target: T2, Polyunsaturated fatty acid lipoxygenase ALOX12 (Homo sapiens); experiment: percent inhibition against human platelet 12-lipoxygenase (12-HLO); NI is no inhibition
[11] = Inhibition ratio of human reticulocyte 15-lipoxygenase (15-HLO)/ human platelet 12-lipoxygenase (12-HLO); NI is no inhibition

SMILES: C[C@H](Cc1ccc(OCOC(=O)C(C)(C)C)c(OCOC(=O)C(C)(C)C)c1)[C@@H](C)Cc1ccc(OCOC(=O)C(C)(C)C)c(OCOC(=O)C(C)(C)C)c1
inhibition [1]: 0%
inhibition [2]: 0%
inhibition [3]: 0%

SMILES: CC(=O)c1cc(O)c(O)cc1C[C@@H](C)[C@@H](C)Cc1cc(O)c(O)cc1C(C)=O
IC50 [4]: 26000 nM

SMILES: CC(C)C(=O)Oc1ccc(C[C@@H](C)[C@@H](C)Cc2ccc(OC(=O)C(C)C)c(OC(=O)C(C)C)c2)cc1OC(=O)C(C)C
inhibition [2]: 0%
activation [6]: 70%
inhibition [3]: 0%
AC50 [7]: 500 nM

SMILES: COc1cc(C[C@@H](C)[C@@H](C)Cc2cc(OC)c(OC)cc2C(C)=O)c(C(C)=O)cc1OC
inhibition [8]: inactive
inhibition [9]: inactive
inhibition [10]: inactive
inhibition [11]: inactive

SMILES: CCCC(=O)Oc1ccc(C[C@@H](C)[C@@H](C)Cc2ccc(OC(=O)CCC)c(OC(=O)CCC)c2)cc1OC(=O)CCC
inhibition [2]: 0%
activation [6]: 77%
inhibition [3]: 0%
AC50 [7]: 300 nM

SMILES: COc1cc(C[C@@H](C)[C@@H](C)Cc2cc(OC)c(OC)cc2NC(C)=O)c(NC(C)=O)cc1OC
inhibition [8]: inactive
inhibition [9]: inactive
inhibition [10]: inactive
inhibition [11]: inactive

SMILES: COc1cc(Cl)c(C[C@@H](C)[C@@H](C)Cc2cc(OC)c(OC)cc2Cl)cc1OC
inhibition [8]: inactive
inhibition [9]: inactive
inhibition [10]: inactive
inhibition [11]: inactive

SMILES: COc1cc(C[C@@H](C)[C@@H](C)Cc2cc(OC)c(OC)cc2[N+](=O)[O-])c([N+](=O)[O-])cc1OC
inhibition [1]: 0%
inhibition [2]: 0%
inhibition [3]: 0%

SMILES: CCCCCC(=O)Oc1ccc(C[C@@H](C)[C@@H](C)Cc2ccc(OC(=O)CCCCC)c(OC(=O)CCCCC)c2)cc1OC(=O)CCCCC
inhibition [2]: 0%
activation [6]: 70%
inhibition [3]: 0%
AC50 [7]: 200 nM

SMILES: CCC(=O)Oc1cc(C[C@@H](C)[C@@H](C)Cc2cc(OC(=O)CC)c(OC(=O)CC)cc2[N+](=O)[O-])c([N+](=O)[O-])cc1OC(=O)CC
inhibition [1]: 0%
inhibition [2]: 0%
inhibition [3]: 0%

SMILES: C[C@H](Cc1cc(O)c(O)cc1Cl)[C@@H](C)Cc1cc(O)c(O)cc1Cl
IC50 [5]: 65 nM
IC50 [4]: 360 nM

SMILES: C[C@H](Cc1cc(O)c(O)cc1[N+](=O)[O-])[C@@H](C)Cc1cc(O)c(O)cc1[N+](=O)[O-]
IC50 [4]: 360 nM

SMILES: COc1cc(Br)c(C[C@@H](C)[C@@H](C)Cc2cc(OC)c(OC)cc2Br)cc1OC
inhibition [8]: inactive
inhibition [9]: inactive
inhibition [10]: inactive
inhibition [11]: inactive

SMILES: COc1cc(N)c(C[C@@H](C)[C@@H](C)Cc2cc(OC)c(OC)cc2N)cc1OC
inhibition [1]: 0%
inhibition [2]: 0%
inhibition [3]: 0%

The remaining lines, values ahead:

IC50 [5]: 170 nM
IC50 [4]: 14000 nM
SMILES: COc1cc(C[C@@H](C)[C@@H](C)Cc2ccc(O)c(O)c2)ccc1O

IC50 [5]: 140 nM
IC50 [4]: 3100 nM
SMILES: CCc1cc(O)c(O)cc1C[C@@H](C)[C@@H](C)Cc1cc(O)c(O)cc1CC

inhibition [2]: 0%
activation [6]: 22%
inhibition [3]: 0%
AC50 [7]: 300 nM
SMILES: CCC(=O)Oc1ccc(C[C@@H](C)[C@@H](C)Cc2ccc(OC(=O)CC)c(OC(=O)CC)c2)cc1OC(=O)CC

IC50 [5]: 140 nM
IC50 [4]: 2200 nM
SMILES: C[C@H](Cc1ccc(O)c(O)c1)[C@@H](C)Cc1ccc2c(c1)OC(C)(C)O2

inhibition [1]: 0%
inhibition [2]: 0%
inhibition [3]: 0%
SMILES: CC(=O)Oc1ccc(C[C@@H](C)[C@@H](C)Cc2ccc(OC(C)=O)c(OC(C)=O)c2)cc1OC(C)=O

IC50 [5]: 57 nM
IC50 [4]: 430 nM
SMILES: C[C@H](Cc1cc(O)c(O)cc1Br)[C@@H](C)Cc1cc(O)c(O)cc1Br

inhibition [8]: inactive
inhibition [9]: inactive
inhibition [10]: inactive
inhibition [11]: inactive
SMILES: COc1ccc(C[C@@H](C)[C@@H](C)Cc2ccc(OC)c(OC)c2)cc1OC
